“Also recorded” adds a separate entry of the source. Where two headings read alike, the source gives them in different places. Peptide text beside a SMILES is read from it.

The source of these data is PMC5397029, “Variations in the interaction of human defensins with Escherichia coli: Possible implications in bacterial killing” (PLoS ONE, 2017).

Data set [1] relates to E. coli MG1655. As to conditions: cited from earlier work. From the text: Table 2 Minimum Bactericidal Concentration (MBC) of human defensins against E. coli MG1655. | column: Minimum bactericidal concentration in μM^a
Data set [2] concerns E. coli. Briefly: Zeta potential of E. coli in the presence of defensins. Type of data set: cell-based, Escherichia coli. Conditions: for E. coli surface charge neutralizing ability (change in zeta potential): 5 μM defensin, except HD5 2.5 μM and HBD3 0.5 μM, three independent experiments; for concentration found to neutralize the E. coli surface charge almost completely: zeta potential of E. coli. How it is done: Zeta potential of the E. coli in the presence of human defensins was measured as described previously. The concentration of peptide used was 5μM, except for HBD3 and HD5. […] Cells were treated with 5 μM defensin and zeta potential was measured, except in the cases of HD5 and HBD3. In the cases of HD5 and HBD3, zeta potential was measured after treating with 2.5 μM and 0.5 μM of peptides, respectively. Control represent zeta potential of E. coli in the absence of any peptide. Error bars represents standard deviations of three independent experiments.

Data set [3] can be described thus: Calcein release assay from lipid vesicles. As to conditions: calcein entrapped POPC:POPG (1:1) LUVs, 25 μM, 10 mM sodium phosphate buffer pH 7.4, increasing defensin concentrations; 1% Triton X-100 = 100%. How it is done:
Large unilamellar vesicles (LUVs) composed of POPC:POPG (1:1) containing 50 mM calcein were prepared by lipid extrusion method. Desired amounts of lipids from their respective chloroform stocks were taken into a glass tube and dried under a nitrogen stream to form a thin uniform lipid film. The film was further dried under vacuum for 5 to 6 hours to remove trace amounts of organic solvents. After this step, the lipid film was hydrated with 10 mM sodium phosphate buffer (pH 7.4) containing 50 mM calcein at 4°C for 12 to 15 hours. Hydrated lipid films were then vortexed and passed through polycarbonate membrane having a pore diameter of 100 nm using a mini-extruder (Avanti Polar Lipid Inc.). Free calcein was removed by passing through a Sephadex G50 column. Calcein entrapped vesicles (25 μM) were then treated with increasing concentrations of defensins and extent of calcein released was measured in a Fluorolog 3–22 fluorescence spectrophotometer (Jobin Yvon, USA). Excitation and emission wavelengths used were 485 and 515 nm, respectively. 1% Triton X-100 was used for complete release of calcein.  Fig 5 Effect of human defensins on POPC:POPG (1:1) vesicles. Calcein entrapped POPC: POPG vesicles (25 μM) were treated with increasing concentrations of human defensins and percentage of calcein released was calculated. Calcein released by 1% Triton X-100 was taken as 100%.

Data set [4] in a line: Transmission electron microscopy of defensin aggregates. Type of data set: physicochemical. Conditions: 20 μM defensin in 10 mM sodium phosphate buffer pH 7.4, uranyl acetate stain, TEM. How it is done: Defensins were diluted to a concentration of 20 μM in 10 mM sodium phosphate buffer (pH 7.4) from their respective stocks solutions (dissolved in Milli-Q water). From these solutions, 5 μL was deposited on a carbon-coated Formvar 200-mesh copper grid. The grid was left undisturbed for about 5 minutes; excess buffer was then removed using Whatman filter paper. Grids were stained with uranyl acetate (2% w/v) for 45 seconds. Excess stain was removed and grids were used for recording the images. Images were recorded using JAM-2100 LaB6 transmission electron microscope (JEOL, Tokyo, Japan) at 100 kV.

Data set [5] has as its system E. coli inner membrane. Conditions: ref Wang et al. [55]; cited from earlier work. The protocol:
Recent findings indicate HD5 exerts its activity against the E. coli by localizing to bacterial cytoplasm and possibly interacting with DNA [39]. In a very recent study, Wang et al., have shown that HD5 permeabilizes the E. coli inner membrane. However, prolonged incubation (~40 minutes) was required t ...

Data set [6] concerns E. coli inner membrane. Nature of the data set: Time-lapse fluorescence confocal microscopy (SYTOX green / FM4-64). As to conditions: for Intracellular accumulation of SYTOX green (E. coli inner membrane permeabilization): sub-lethal concentrations: HBD1 3 μM, HBD2 3 μM, HBD3 1 μM, HBD4 3 μM, HNP3 8 μM, HNP4 4 μM, HD5 2.5 μM, HD6 5 μM, 10^6 CFU/mL, 10 mM sodium phosphate buffer pH 7.4; for Intracellular accumulation of SYTOX green (E. coli inner membrane permeabilization) / time at which SYTOX green accumulation is evident: 5 nM SYTOX green; for time at which SYTOX green accumulation is evident: sub-lethal defensin concentrations, time-lapse confocal microscopy. Type of data set: cell-based, Escherichia coli. How it is done: Effect of defensins on the E. coli inner membrane was examined using time-lapse confocal fluorescence microscopy. The assay was carried out as follows. Bacteria from the mid-log-phase was collected and resuspended (final density was adjusted to 10^6 CFU/mL) in 10 mM sodium phosphate buffer (pH 7.4). Cells were then treated with 3 μM FM4-64 for 20 minutes at room temperature to stain the inner membrane. FM4-64 is a lipophilic dye which stains the bacterial inner membrane. Excess dye was removed by centrifuging. The FM4-64 stained cells were then treated with sub-lethal concentrations of defensins in presence of 5 nM of SYTOX green. […] Cells were immediately transferred to chambered slides and images were recorded using 100X oil immersion objective on a Leica Ultraspectral microscope SP8 (Leica Microsystems). Argon 488 and HeNe 561 lasers were used to excite SYTOX green and FM4-64, respectively. Signals ranging from 510 to 560 nm and 600 to 740 nm were collected for SYTOX green and FM4-64, respectively. Images were processed using LAS-AFver3.1.3 (Leica Microsystems).

The test system of data set [7] is E. coli inner membrane. Briefly: SYTOX green uptake assay using fluorescent spectroscopy. Conditions: 2 × MBC of defensins, 200 nM SYTOX green, 5 × 10^6 CFU/mL, 10 mM phosphate buffer. Type of data set: cell-based, Escherichia coli. How it is done: Effect of defensins on the E. coli inner membrane was assessed by measuring the extent of intracellular accumulation of SYTOX green. Cells from mid-log-phase were collected, washed and resuspended in 10 mM phosphate buffer. The final density was adjusted to 5 × 10^6 CFU/mL. […] Enhancement in SYTOX green fluorescence, a direct measure of the extent of membrane permeabilization was monitored in a Flurolog 3–22 fluorescence spectrophotometer (Jobin Yvon, USA). Excitation and emission wavelengths used were 503 nm and 523 nm, respectively.  Fig 4 Accumulation of SYTOX green in human defensins treated E. coli. […] The arrows indicate the point at which defensins were added.

Where [8] appears, read: ref Krishnakumari et al. 2013 [44].

“GIGDPVTC^1LKSGAIC^2HPVFC^3PRRYKQIGTC^2GLPGTKC^1C^3KKP (bicyclic or more) [HBD2, human β-defensin, three disulfide bonds, purchased from Peptides International]”: in data set [1] (setting [8]), the Minimum bactericidal concentration was 8 µM.
Consider “GIINTLQKYYC^1RVRGGRC^2AVLSC^3LPKEEQIGKC^2STRGRKC^1C^3RRKK (bicyclic or more) [HBD3, human β-defensin, three disulfide bonds, purchased from Peptides International]”, for which, in data set [2], the “E. coli surface charge neutralizing ability (change in zeta potential)” value is listed as “most efficient bacterial surface charge neutralizing ability” and the “concentration found to neutralize the E. coli surface charge almost completely” value turned out to be 0.5 µM. Also, the Minimum bactericidal concentration in data set [1] (setting [8]) is 2 µM.
For the compound `CC[C@H](C)[C@@H]1NC(=O)[C@H](CCC(=O)O)NC(=O)[C@@H]2CSSC[C@@H]3NC(=O)[C@H](Cc4ccc(O)cc4)NC(=O)[C@@H](NC(=O)[C@@H](NC(=O)[C@H](C)N)[C@@H](C)O)CSSC[C@@H](C(=O)N[C@@H](CCCNC(=N)N)C(=O)O)NC(=O)[C@H](CSSC[C@H](NC(=O)[C@H](CCCNC(=N)N)NC(=O)CNC(=O)[C@H]([C@@H](C)O)NC(=O)[C@H](CCCNC(=N)N)NC3=O)C(=O)N[C@@H](C)C(=O)N[C@@H]([C@@H](C)O)C(=O)N[C@@H](CCCNC(=N)N)C(=O)N[C@@H](CCC(=O)O)C(=O)N[C@@H](CO)C(=O)N[C@@H](CC(C)C)C(=O)N[C@@H](CO)C(=O)NCC(=O)N[C@@H](C(C)C)C(=O)N2)NC(=O)[C@H](CC(C)C)NC(=O)[C@H](CCCNC(=N)N)NC(=O)[C@H](Cc2ccc(O)cc2)NC(=O)[C@H](CC(C)C)NC(=O)[C@H](CCCNC(=N)N)NC(=O)CNC(=O)[C@H](CO)NC1=O` [HD5] (HELM PEPTIDE1{A.T.C.Y.C.R.T.G.R.C.A.T.R.E.S.L.S.G.V.C.E.I.S.G.R.L.Y.R.L.C.C.R}$PEPTIDE1,PEPTIDE1,3:R3-31:R3|PEPTIDE1,PEPTIDE1,5:R3-20:R3|PEPTIDE1,PEPTIDE1,10:R3-30:R3$$$V2.0; N-terminus and C-terminus assumed), the “Permeabilization of lipid vesicles (calcein release)” value (from here on “Permeabilization … (calcein release)”) in data set [3] is listed as “do not permeabilize membranes”. Moreover, the “Morphology of self-assembled aggregates (electron micrographs)” value in data set [4] is listed as “rod-like structures”. The “incubation required to observe E. coli inner membrane perturbation” value in data set [5] was ~ 40 minutes. Also, in data set [6], the “Intracellular accumulation of SYTOX green (E. coli inner membrane permeabilization)” value (“Intracellular accumulation” below) is “does not permeabilize the E. coli inner membrane; also recorded: faint localization of SYTOX green” and the “time at which SYTOX green accumulation is evident” value is recorded as 30 min. In addition, in data set [7], the “Damage to the E. coli inner membrane (SYTOX green accumulation, time-lapse microscopy and fluorescent spectroscopy)” value (“Damage to the E. coli inner membrane” below) is “do not cause extensive damage to the E. coli inner membrane”. Also, in data set [2], the “E. coli surface charge neutralizing ability (change in zeta potential)” value was “neutralizes the E. coli surface charge at much lower concentration than HNP4” and the “concentration found to neutralize the E. coli surface charge almost completely” value worked out at 2.5 µM.
On to “AFTC^1HC^2RRSC^3YSTEYSYGTC^2TVMGINHRFC^3C^1L (bicyclic or more) [HD6]”, for which the “Permeabilization … (calcein release)” value in data set [3] is reported as “do not permeabilize membranes”. In data set [4], the “Morphology of self-assembled aggregates (electron micrographs)” value is “distinctive fibrillar morphology”. For the same compound, in data set [7], the “Damage to the E. coli inner membrane” value is reported as “do not cause extensive damage to the E. coli inner membrane”. Moreover, the “E. coli surface charge neutralizing ability (change in zeta potential)” value in data set [2] is “neutralizes the E. coli surface charge more efficiently than HBD4 (+7), HBD1 (+ 4) and HNP3 (+2)”.
In the case of “ELDRIC^1GYGTARC^2RKKC^3RSQEYRIGRC^2PNTYAC^1C^3LRKWDESLLNRTKP (bicyclic or more) [HBD4, human β-defensin, three disulfide bonds, purchased from Peptides International]”, the “Permeabilization … (calcein release)” value in data set [3] is “does not permeabilize PC:PG vesicles”. Also, the “Morphological features of FM4-64 stained E. coli inner membrane” value in data set [6] (3 μM FM4-64, sub-lethal defensin concentration (HBD4 3 μM)) is recorded as “FM4-64 staining shows considerable diffusion into cytoplasm”. Besides, the Minimum bactericidal concentration in data set [1] (ref Sharma and Nagaraj 2012 [45]) is 5 µM.
Regarding `CC[C@H](C)[C@@H]1NC(=O)[C@H](CC(C)C)NC(=O)[C@@H]2CSSC[C@@H]3NC(=O)[C@H](CO)NC(=O)[C@@H](NC(=O)[C@@H](N)C(C)C)CSSC[C@@H](C(=O)N[C@H](C(=O)N[C@@H](CCCNC(=N)N)C(=O)N[C@H](C(=O)O)C(C)C)[C@@H](C)O)NC(=O)[C@H](CSSC[C@H](NC(=O)[C@H](Cc4ccccc4)NC(=O)[C@H](C(C)C)NC(=O)[C@H](CC(C)C)NC(=O)[C@H](CCCNC(=N)N)NC3=O)C(=O)N[C@@H](CCCNC(=N)N)C(=O)N[C@@H](CCCNC(=N)N)C(=O)N[C@@H]([C@@H](C)O)C(=O)N[C@@H](CCC(=O)O)C(=O)N[C@@H](CC(C)C)C(=O)N[C@@H](CCCNC(=N)N)C(=O)N[C@@H](C(C)C)C(=O)NCC(=O)N[C@@H](CC(N)=O)C(=O)N2)NC(=O)[C@H](Cc2ccc(O)cc2)NC(=O)[C@H]([C@@H](C)O)NC(=O)[C@H](Cc2ccccc2)NC(=O)[C@H](CO)NC(=O)[C@H](C(C)C)NC(=O)CNC(=O)CNC1=O` [HNP4] (HELM PEPTIDE1{V.C.S.C.R.L.V.F.C.R.R.T.E.L.R.V.G.N.C.L.I.G.G.V.S.F.T.Y.C.C.T.R.V}$PEPTIDE1,PEPTIDE1,2:R3-30:R3|PEPTIDE1,PEPTIDE1,4:R3-19:R3|PEPTIDE1,PEPTIDE1,9:R3-29:R3$$$V2.0; N-terminus and C-terminus assumed), in data set [6], the “Intracellular accumulation” value is listed as “cytoplasmic accumulation of SYTOX green is evident” and the “time at which SYTOX green accumulation is evident” value was found to be 11 min.
“DHYNC^1VSSGGQC^2LYSAC^3PIFTKIQGTC^2YRGKAKC^1C^3K (bicyclic or more) [HBD1, human β-defensin, three disulfide bonds, purchased from Peptides International]”: in data set [3], the “Permeabilization … (calcein release)” value is reported as “do not permeabilize membranes”. For the same compound, in data set [6], the “Intracellular accumulation” value is on record as “faint accumulation of SYTOX green” and the “time at which SYTOX green accumulation is evident” value is ~ 20 min. For the same compound, the “Damage to the E. coli inner membrane” value in data set [7] is given as “do not cause extensive damage to the E. coli inner membrane”. In data set [2], the “E. coli surface charge neutralizing ability (change in zeta potential)” value is “poor surface charge neutralizing ability”. For the same compound, in data set [1] (setting [8]), the Minimum bactericidal concentration is 8 µM.
